Laboratory results as given in patent publication US10112929B2, “Lactams as inhibitors of rock” (BRISTOL-MYERS SQUIBB COMPANY, priority 2015, dated 2018).
Where a name gives a salt, the structure may show the parent alone.

target: ROCK2 (Homo sapiens (Human), UniProt O75116); assay: biochemical
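Also: rho kinase enzyme reaction halted with EDTA, phospho- and non-phospho peptide separated for read-out, kinase activity inhibition derived across a dose-response series, DMSO under 2%.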

ROCK2, sequence (O75116 whole entry, species assumed): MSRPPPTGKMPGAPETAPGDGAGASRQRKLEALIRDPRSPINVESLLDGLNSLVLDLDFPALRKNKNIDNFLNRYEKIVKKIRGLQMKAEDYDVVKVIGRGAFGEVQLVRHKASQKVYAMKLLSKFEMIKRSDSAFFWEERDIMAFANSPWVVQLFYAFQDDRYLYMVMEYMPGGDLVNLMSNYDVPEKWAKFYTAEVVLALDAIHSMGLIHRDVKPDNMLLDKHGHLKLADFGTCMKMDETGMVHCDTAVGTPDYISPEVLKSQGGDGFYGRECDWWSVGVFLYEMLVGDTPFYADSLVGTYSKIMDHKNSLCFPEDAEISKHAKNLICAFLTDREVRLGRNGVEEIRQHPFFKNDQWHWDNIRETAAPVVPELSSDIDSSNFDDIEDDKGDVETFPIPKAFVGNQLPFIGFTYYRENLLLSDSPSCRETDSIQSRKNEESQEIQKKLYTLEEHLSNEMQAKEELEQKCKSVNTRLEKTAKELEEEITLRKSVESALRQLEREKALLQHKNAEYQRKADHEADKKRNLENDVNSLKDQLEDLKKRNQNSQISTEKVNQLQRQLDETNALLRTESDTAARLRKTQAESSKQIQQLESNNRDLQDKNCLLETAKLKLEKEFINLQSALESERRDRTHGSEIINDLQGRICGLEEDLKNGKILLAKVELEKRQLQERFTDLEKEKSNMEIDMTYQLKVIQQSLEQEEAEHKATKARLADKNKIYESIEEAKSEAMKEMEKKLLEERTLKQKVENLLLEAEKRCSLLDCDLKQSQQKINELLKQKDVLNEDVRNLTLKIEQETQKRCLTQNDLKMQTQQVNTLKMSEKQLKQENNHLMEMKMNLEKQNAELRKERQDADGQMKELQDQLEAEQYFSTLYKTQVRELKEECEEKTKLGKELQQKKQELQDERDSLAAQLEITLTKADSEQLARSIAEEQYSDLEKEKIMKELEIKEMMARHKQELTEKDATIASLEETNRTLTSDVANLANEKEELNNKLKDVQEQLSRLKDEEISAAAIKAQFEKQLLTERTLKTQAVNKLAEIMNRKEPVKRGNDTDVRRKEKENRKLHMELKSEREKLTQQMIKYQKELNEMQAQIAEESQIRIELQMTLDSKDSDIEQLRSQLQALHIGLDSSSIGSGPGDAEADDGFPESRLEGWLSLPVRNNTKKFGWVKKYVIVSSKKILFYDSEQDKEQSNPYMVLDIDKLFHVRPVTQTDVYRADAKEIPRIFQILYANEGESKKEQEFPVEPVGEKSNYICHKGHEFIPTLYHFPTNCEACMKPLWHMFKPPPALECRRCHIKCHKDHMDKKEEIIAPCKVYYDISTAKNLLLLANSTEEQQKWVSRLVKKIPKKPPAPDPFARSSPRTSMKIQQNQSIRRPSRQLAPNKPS

| SMILES | IC50 [nM] |
| --- | --- |
| CCc1nc(N2CCC(Nc3cc(F)cc(OC)c3)C2=O)ccc1-c1cn[nH]c1 (single isomer, unassigned) [Example 315, 1-(6-ethyl-5-(1H-pyrazol-4-yl)pyridin-2-yl)-3-((3-fluoro-5-methoxyphenyl)amino) pyrrolidin-2-one] | 10 to 100 |
| O=C1C(NCCc2ccccc2)CCN1c1ccc(-c2cn[nH]c2)cc1 (stereo not drawn) [Example 59, 1-(4-(1H-pyrazol-4-yl)phenyl)-3-(phenethylamino)pyrrolidin-2-one, 2 TFA] | 100 to 2200 |
| COc1cc(F)ccc1NC1CCN(c2ccc(-c3cn[nH]c3)c(OC)c2)C1=O (single isomer, unassigned) [Example 143, 3-((4-fluoro-2-methoxyphenyl)amino)-1-(3-methoxy-4-(1H-pyrazol-4-yl)phenyl) pyrrolidin-2-one] | 100 to 2200 |
| COc1nc(N2CCC(N3CCC(F)(F)CC3)C2=O)ccc1-c1cn[nH]c1 (racemic) [Example 282, 3-(4,4-difluoropiperidin-1-yl)-1-(6-methoxy-5-(1H-pyrazol-4-yl)pyridin-2-yl)pyrrolidin-2-one hydrochloride] | 10 to 100 |
| O=C1C(Cc2ccc(F)cc2)CCN1c1ccc(-c2cn[nH]c2)cc1 (stereo not drawn) [Example 98, 1-(4-(1H-pyrazol-4-yl)phenyl)-3-(4-fluorobenzyl)pyrrolidin-2-one] | 100 to 2200 |
| COc1cccc(NC2CCN(c3ccc(-c4cn[nH]c4)c(C)n3)C2=O)c1 (single isomer, unassigned) [Example 189, 3-((3-methoxyphenyl)amino)-1-(6-methyl-5-(1H-pyrazol-4-yl)pyridin-2-yl)pyrrolidin-2-one] | < 10 |
| CCc1cc(N2CCC(Nc3cccc(OC)c3)C2=O)ccc1-c1cn[nH]c1 (single isomer, unassigned) [Example 243, 1-(3-ethyl-4-(1H-pyrazol-4-yl)phenyl)-3-((3-methoxyphenyl)amino)pyrrolidin-2-one] | 10 to 100 |
| COc1nc(N2CCC(Nc3ccc4ncsc4c3)C2=O)ccc1-c1cn[nH]c1 (racemic) [Example 259, 3-(benzo[d]thiazol-6-ylamino)-1-(6-methoxy-5-(1H-pyrazol-4-yl)pyridin-2-yl)pyrrolidin-2-one] | < 10 |
| O=C1C(Cc2ccccc2F)CCN1c1ccc(-c2cn[nH]c2)cc1 (stereo not drawn) [Example 96, 1-(4-(1H-pyrazol-4-yl)phenyl)-3-(2-fluorobenzyl)pyrrolidin-2-one] | 10 to 100 |
| CCc1cc(N2CCC(Nc3cccc(OC)c3)C2=O)ccc1-c1cn[nH]c1 (single isomer, unassigned) [Example 244, 1-(3-ethyl-4-(1H-pyrazol-4-yl)phenyl)-3-((3-methoxyphenyl)amino)pyrrolidin-2-one] | < 10 |
| COc1cccc(NC2CCN(c3ccc(-c4cn[nH]c4)c(C#N)c3)C2=O)c1 (single isomer, unassigned) [Example 378, 5-(3-((3-methoxyphenyl)amino)-2-oxopyrrolidin-1-yl)-2-(1H-pyrazol-4-yl)benzonitrile] | 10 to 100 |
| O=C1C(Nc2cncnc2)CCN1c1ccc(-c2cn[nH]c2)cc1 (racemic) [Example 227, 1-(4-(1H-pyrazol-4-yl)phenyl)-3-(pyrimidin-5-ylamino)pyrrolidin-2-one] | 10 to 100 |
| COc1nc(N2CCC(Nc3cccc(OC(C)C)c3)C2=O)ccc1-c1cn[nH]c1 (racemic) [Example 267, 3-((3-isopropoxyphenyl)amino)-1-(6-methoxy-5-(1H-pyrazol-4-yl)pyridin-2-yl)pyrrolidin-2-one] | 10 to 100 |
| O=C1C(Nc2cccc(OCC3CC3)c2)CCN1c1ccc(-c2cn[nH]c2)cn1 (single isomer, unassigned) [Example 319, 1-(5-(1H-pyrazol-4-yl)pyridin-2-yl)-3-((3-(cyclopropylmethoxy)phenyl)amino) pyrrolidin-2-one] | 10 to 100 |
| CCc1cc(N2CCC(Nc3cc(F)cc(OC)c3)C2=O)ccc1-c1cn[nH]c1 (single isomer, unassigned) [Example 245, 1-(3-ethyl-4-(1H-pyrazol-4-yl)phenyl)-3-((3-fluoro-5-methoxyphenyl)amino) pyrrolidin-2-one] | 10 to 100 |
| Cc1cccc(NC2CCN(c3ccc(-c4cn[nH]c4)cc3)C2=O)c1 (stereo not drawn) [Example 2, 1-(4-(1H-pyrazol-4-yl)phenyl)-3-(m-tolylamino)pyrrolidin-2-one] | 10 to 100 |
| COc1cccc(CC2CCN(c3ccc(-c4cn[nH]c4)cc3)C2=O)c1 (stereo not drawn) [Example 93, 1-(4-(1H-pyrazol-4-yl)phenyl)-3-(3-methoxybenzyl)pyrrolidin-2-one] | 100 to 2200 |
| O=C1C(Nc2cccc(OC(F)F)c2)CCN1c1ccc(-c2cn[nH]c2)c(F)c1 (single isomer, unassigned) [Example 355, 3-((3-(difluoromethoxy)phenyl)amino)-1-(3-fluoro-4-(1H-pyrazol-4-yl)phenyl) pyrrolidin-2-one] | 10 to 100 |
| COc1nc(N2CCC(N3CCC(OC)CC3)C2=O)ccc1-c1cn[nH]c1 (racemic) [Example 291, 1-(6-methoxy-5-(1H-pyrazol-4-yl)pyridin-2-yl)-3-(4-methoxypiperidin-1-yl)pyrrolidin-2-one hydrochloride] | 100 to 2200 |
| COc1cccc(OC2CCN(c3ccc(-c4cn[nH]c4)c(OC)n3)C2=O)c1 (single isomer, unassigned) [Example 171, 1-(6-methoxy-5-(1H-pyrazol-4-yl)pyridin 2-yl)-3-(3-methoxyphenoxy)pyrrolidin-2-one] | < 10 |
| COc1cccc(OC2CCN(c3ccc(-c4cn[nH]c4)c(OC)n3)C2=O)c1 (single isomer, unassigned) [Example 170, 1-(6-methoxy-5-(1H-pyrazol-4-yl)pyridin 2-yl)-3-(3-methoxyphenoxy)pyrrolidin-2-one] | 10 to 100 |
| COc1cc(F)cc(NC2CCN(c3ccc(-c4cn[nH]c4)c(C(F)(F)F)c3)C2=O)c1 (single isomer, unassigned) [Example 370, 1-(4-(1H-pyrazol-4-yl)-3-(trifluoromethyl)phenyl)-3-((3-fluoro-5-methoxyphenyl)amino)pyrrolidin-2-one] | 10 to 100 |
| COc1nc(N2CCC(Nc3ccc4c(c3)CS(=O)(=O)C4)C2=O)ccc1-c1cn[nH]c1 (racemic) [Example 263, 3-((2,2-dioxido-l,3-dihydrobenzo[c]thiophen-5-yl)amino)-1-(6-methoxy-5-(1H-pyrazol-4-yl)pyridin-2-yl)pyrrolidin-2-one] | 100 to 2200 |
| CN(C)c1cccc(N[C@@H]2CCN(c3ccc(-c4cn[nH]c4)cc3)C2=O)c1 [Example 390, (R)-1-(4-(1H-pyrazol-4-yl)phenyl)-3-((3-(dimethylamino)phenyl)amino)pyrrolidin-2-one] | 100 to 2200 |
| COc1cccc(NC2CCN(c3ccc(-c4cn[nH]c4)c(C4CC4)c3)C2=O)c1 (single isomer, unassigned) [Example 363, 1-(3-cyclopropyl-4-(1H-pyrazol-4-yl)phenyl)-3-((3-methoxyphenyl)amino) pyrrolidin-2-one] | 10 to 100 |

More lines, now with the values ahead:

| IC50 [nM] | SMILES |
| --- | --- |
| 10 to 100 | COc1ccc(F)c(NC2CCN(c3ccc(-c4cn[nH]c4)c(C)c3)C2=O)c1 (single isomer, unassigned) [Example 364, 3-((2-fluoro-5-methoxyphenyl)amino)-1-(3-methyl-4-(1H-pyrazol-4-yl)phenyl) pyrrolidin-2-one] |
| 100 to 2200 | COc1cccc(NC2CCN(c3ncc(-c4cn[nH]c4)cc3F)C2=O)c1 (single isomer, unassigned) [Example 357, 1-(3-fluoro-5-(1H-pyrazol-4-yl)pyridin-2-yl)-3-((3-methoxyphenyl)amino) pyrrolidin-2-one] |
| 10 to 100 | O=C1C(Nc2cccc(F)c2)CCN1c1ccc(-c2cn[nH]c2)c(F)c1 (single isomer, unassigned) [Example 48, 1-(3-fluoro-4-(1H-pyrazol-4-yl)phenyl)-3-((3-fluorophenyl)amino)pyrrolidin-2-one] |
| 10 to 100 | COc1ccc(F)c(NC2CCN(c3ccc(-c4cn[nH]c4)cn3)C2=O)c1 (single isomer, unassigned) [Example 303, 1-(5-(1H-pyrazol-4-yl)pyridin-2-yl)-3-((2-fluoro-5-methoxyphenyl)amino)pyrrolidin-2-one] |
| 10 to 100 | COc1cccc(NC2CCN(c3cc(F)c(-c4cn[nH]c4)cc3F)C2=O)c1 (single isomer, unassigned) [Example 353, 1-(2,5-difluoro-4-(1H-pyrazol-4-yl)phenyl)-3-((3-methoxyphenyl)amino)pyrrolidin-2-one] |
| 100 to 2200 | COc1ccc(F)c(NC2CCN(c3ccc(-c4cn[nH]c4)cc3F)C2=O)c1 (single isomer, unassigned) [Example 340, 1-(2-fluoro-4-(1H-pyrazol-4-yl)phenyl)-3-((2-fluoro-5-methoxyphenyl)amino) pyrrolidin-2-one] |
| 100 to 2200 | COc1c(F)cccc1NC1CCN(c2ccc(-c3cn[nH]c3)cc2F)C1=O (single isomer, unassigned) [Example 342, 3-((3-fluoro-2-methoxyphenyl)amino)-1-(2-fluoro-4-(1H-pyrazol-4-yl)phenyl) pyrrolidin-2-one] |
| 10 to 100 | COc1cc(F)cc(NC2CCN(c3cc(F)c(-c4cn[nH]c4)cc3F)C2=O)c1 (single isomer, unassigned) [Example 351, 1-(2,5-difluoro-4-(1H-pyrazol-4-yl)phenyl)-3-((3-fluoro-5-methoxyphenyl)amino)pyrrolidin-2-one] |
| 100 to 2200 | COc1c(F)cccc1NC1CCN(c2ccc(-c3cn[nH]c3)c(C#N)c2)C1=O (single isomer, unassigned) [Example 376, 5-(3-((3-fluoro-2-methoxyphenyl)amino)-2-oxopyrrolidin-1-yl)-2-(1H-pyrazol-4-yl)benzonitrile] |
| 10 to 100 | COc1cc(NC2CCN(c3cc(F)c(-c4cn[nH]c4)cc3F)C2=O)ccc1F (single isomer, unassigned) [Example 349, 1-(2,5-difluoro-4-(1H-pyrazol-4-yl)phenyl)-3-((4-fluoro-3-methoxyphenyl)amino)pyrrolidin-2-one] |
| < 10 | COc1cccc(NC2CCN(c3ccc(-c4cn[nH]c4)c(F)c3F)C2=O)c1 (single isomer, unassigned) [Example 306, 1-(2,3-difluoro-4-(1H-pyrazol-4-yl)phenyl)-3-((3-methoxyphenyl)amino) pyrrolidin-2-one] |
